Measured values: patent US9827235B2, “Pharmaceutical compositions comprising antibacterial agents” (WOCKHARDT LIMITED, priority 2013, dated 2017)
Where two headings read alike, the source gives them in different places.

Tests used:
Format in all cases: cell-based
[1] = tested on: highly resistant strains of E. coli, K. pneumonia and P. aeruginosa; experiment: MIC, summary over the strain panel
Protocol: (§1) The antibacterial activity of combinations according to the invention was investigated against various bacterial strains. In a typical study, minimum inhibitory concentrations (MIC) were determined using Muller Hinton Agar (MHA) (BD, USA) according to Clinical and Laboratory Standards Institute (CLSI) recommendations, (Clinical and Laboratory Standards Institute (CLSI), Performance Standards for Antimicrobial Susceptibility Testing, 20th Informational Supplement, M 100-S20, Volume 30, No. 1, 2010). In short, the inocula were adjusted to deliver about 10^4 colony forming units (CFU) per spot with a multipoint inoculator (Applied Quality Services, UK). The plates were pored with doubling concentration range of the test combinations according to invention containing MHA. The plates were inoculated and were incubated at 35° C. for 18 hours.

E. coli S 35 = experiment: MIC on Muller Hinton Agar (CLSI); details: Escherichia coli
Protocol: as §1

P. aeruginosa S 513 = experiment: MIC on Muller Hinton Agar (CLSI); details: Pseudomonas aeruginosa
Protocol: as §1

E. coli S 33 = experiment: MIC on Muller Hinton Agar (CLSI); details: Escherichia coli
Protocol: as §1

E. coli S 16 = experiment: MIC on Muller Hinton Agar (CLSI); details: Escherichia coli
Protocol: as §1

P. aeruginosa S 508 = experiment: MIC on Muller Hinton Agar (CLSI); details: Pseudomonas aeruginosa
Protocol: as §1

P. aeruginosa S 504 = experiment: MIC on Muller Hinton Agar (CLSI); details: Pseudomonas aeruginosa
Protocol: as §1

K. pneumoniae S 48 = experiment: MIC on Muller Hinton Agar (CLSI); details: Klebsiella pneumoniae
Protocol: as §1

E. coli S 30 = experiment: MIC on Muller Hinton Agar (CLSI); details: Escherichia coli
Protocol: as §1

K. pneumoniae M 3 = experiment: MIC on Muller Hinton Agar (CLSI); details: Klebsiella pneumoniae
Protocol: as §1

K. pneumoniae B 88 = experiment: MIC on Muller Hinton Agar (CLSI); details: Klebsiella pneumoniae
Protocol: as §1

K. pneumoniae NCTC 13439 = experiment: MIC on Muller Hinton Agar (CLSI); details: Klebsiella pneumoniae
Protocol: as §1

E. coli S 330 = experiment: MIC on Muller Hinton Agar (CLSI); details: Escherichia coli
Protocol: as §1

K. pneumoniae S 50 = experiment: MIC on Muller Hinton Agar (CLSI); details: Klebsiella pneumoniae
Protocol: as §1

[2] = tested on: P. aeruginosa H 113720186; experiment: MIC on Muller Hinton Agar (CLSI); details: Pseudomonas aeruginosa
Protocol: as §1

K. pneumoniae B 77 = experiment: MIC on Muller Hinton Agar (CLSI); details: Klebsiella pneumoniae
Protocol: as §1

E. coli M 44 = experiment: MIC on Muller Hinton Agar (CLSI); details: Escherichia coli
Protocol: as §1

P. aeruginosa Q-111 = experiment: MIC on Muller Hinton Agar (CLSI); details: Pseudomonas aeruginosa
Protocol: as §1

[3] = tested on: clinical isolate of K. pneumoniae B 88 producing metallo beta-lactamases [SHV, TEM, NDM-1]; experiment: Time kill study; details: for Bacterial count: each agent at 8 mcg/ml, initial count 6.18 log CFU/ml
Protocol: (§2) Typically, freshly grown cultures were diluted to the required cell density (initial starting inoculum) in Cation adjusted Muller Hinton broth medium BD, USA). The antibacterial agents at the required concentrations were added into the culture-containing medium either alone or in combination. The samples were incubated under shaking condition (120 rpm) at 37° C. Enumeration of viable bacterial count was undertaken, every 2 hour, by diluting in normal saline and plating on to the Tryptic Soya Agar plates (BD, USA). The plates were incubated for 24 hours to arrive at the viable bacterial count. […] The decrease of 1 Log CFU/ml, after administration of combination of present invention, in comparison to initial bacterial count corresponds to 90% killing of bacteria. Similarly, 2 Log CFU/ml reductions corresponds to 99% killing of bacteria and 3 Log CFU/ml reductions is equal to 99.9% killing of bacteria.

[4] = tested on: clinical isolate of K. pneumoniae S 48 producing metallo beta-lactamases [SHV, TEM, NDM-1]; experiment: Time kill study; details: for Bacterial count: each agent at 8 mcg/ml, initial count 6.84 log CFU/ml
Protocol: as §2

[5] = used alone at 8 mcg/ml, at the end of 6 hours

CO/N=C(\C(=O)N[C@@H]1C(=O)N2C(C(=O)[O-])=C(C[N+]3(C)CCCC3)CS[C@H]12)c1csc(N)n1 [Cefepime, cefepime]
MICs (range over the strains) ([1]; agent alone, resistant strains of E. coli, K. pneumonia and P. aeruginosa): 16 to 64 µg/mL
MIC values of cefepime in presence of the compound of Formula (I) (range over the strains) ([1]; with compound of Formula (I) at 8 mcg/ml): 0.015 to 1 µg/mL
MIC (E. coli S 35; S35, agent alone, enzymes TEM, NDM-1, read-out: MIC): > 32 µg/mL
MIC (E. coli S 35; S35, with compound of Formula (I) at 8 mcg/ml, read-out: MIC (mcg/ml) of cefepime in presence of a compound of Formula (I) (8 mcg/ml)): ≤ 0.015 µg/mL
MIC (P. aeruginosa S 513; S513, agent alone, enzymes VIM-6, read-out: MIC): > 32 µg/mL
MIC (P. aeruginosa S 513; S513, with compound of Formula (I) at 8 mcg/ml, read-out: MIC (mcg/ml) of cefepime in presence of a compound of Formula (I) (8 mcg/ml)): ≤ 0.06 µg/mL
MIC (E. coli S 33; S33, agent alone, enzymes TEM, NDM-1, read-out: MIC): > 32 µg/mL
MIC (E. coli S 33; S33, with compound of Formula (I) at 8 mcg/ml, read-out: MIC (mcg/ml) of cefepime in presence of a compound of Formula (I) (8 mcg/ml)): ≤ 0.015 µg/mL
MIC (E. coli S 16; S16, agent alone, enzymes CMY type, TEM, DHA, read-out: MIC): > 32 µg/mL
MIC (E. coli S 16; S16, with compound of Formula (I) at 8 mcg/ml, read-out: MIC (mcg/ml) of cefepime in presence of a compound of Formula (I) (8 mcg/ml)): ≤ 0.015 µg/mL
MIC (P. aeruginosa S 508; S508, agent alone, enzymes VIM-11, read-out: MIC): > 32 µg/mL
MIC (P. aeruginosa S 508; S508, with compound of Formula (I) at 8 mcg/ml, read-out: MIC (mcg/ml) of cefepime in presence of a compound of Formula (I) (8 mcg/ml)): ≤ 0.06 µg/mL
MIC (P. aeruginosa S 504; S504, agent alone, enzymes VIM-6, read-out: MIC): > 32 µg/mL
MIC (P. aeruginosa S 504; S504, with compound of Formula (I) at 8 mcg/ml, read-out: MIC (mcg/ml) of cefepime in presence of a compound of Formula (I) (8 mcg/ml)): ≤ 0.06 µg/mL
MIC (K. pneumoniae S 48; S48, agent alone, enzymes SHV, TEM, NDM-1, read-out: MIC): > 32 µg/mL
MIC (K. pneumoniae S 48; S48, with compound of Formula (I) at 8 mcg/ml, read-out: MIC (mcg/ml) of cefepime in presence of a compound of Formula (I) (8 mcg/ml)): ≤ 0.015 µg/mL
MIC (E. coli S 30; S30, agent alone, enzymes CMY type, TEM, NDM-1, read-out: MIC): > 32 µg/mL
MIC (E. coli S 30; S30, with compound of Formula (I) at 8 mcg/ml, read-out: MIC (mcg/ml) of cefepime in presence of a compound of Formula (I) (8 mcg/ml)): ≤ 0.015 µg/mL
MIC (K. pneumoniae M 3; M3, agent alone, enzymes SHV, CTXM, TEM, NDM-1, read-out: MIC): > 32 µg/mL
MIC (K. pneumoniae M 3; M3, with compound of Formula (I) at 8 mcg/ml, read-out: MIC (mcg/ml) of cefepime in presence of a compound of Formula (I) (8 mcg/ml)): ≤ 0.015 µg/mL
MIC (K. pneumoniae B 88; B88, agent alone, enzymes SHV, TEM, NDM-1, read-out: MIC): > 32 µg/mL
MIC (K. pneumoniae B 88; B88, with compound of Formula (I) at 8 mcg/ml, read-out: MIC (mcg/ml) of cefepime in presence of a compound of Formula (I) (8 mcg/ml)): ≤ 0.015 µg/mL
MIC (K. pneumoniae NCTC 13439; NCTC13439, agent alone, enzymes VIM-1, read-out: MIC): > 32 µg/mL
MIC (K. pneumoniae NCTC 13439; NCTC13439, with compound of Formula (I) at 8 mcg/ml, read-out: MIC (mcg/ml) of cefepime in presence of a compound of Formula (I) (8 mcg/ml)): 1 µg/mL
MIC (E. coli S 330; S330, agent alone, enzymes NDM, read-out: MIC): > 32 µg/mL
MIC (E. coli S 330; S330, with compound of Formula (I) at 8 mcg/ml, read-out: MIC (mcg/ml) of cefepime in presence of a compound of Formula (I) (8 mcg/ml)): ≤ 0.015 µg/mL
MIC (K. pneumoniae S 50; S50, agent alone, enzymes SHV, TEM, NDM-1, read-out: MIC): > 32 µg/mL
MIC (K. pneumoniae S 50; S50, with compound of Formula (I) at 8 mcg/ml, read-out: MIC (mcg/ml) of cefepime in presence of a compound of Formula (I) (8 mcg/ml)): ≤ 0.015 µg/mL
MIC ([2]; H113720186, agent alone, enzymes IMP, read-out: MIC): > 32 µg/mL
MIC ([2]; H113720186, with compound of Formula (I) at 8 mcg/ml, read-out: MIC (mcg/ml) of cefepime in presence of a compound of Formula (I) (8 mcg/ml)): ≤ 0.5 µg/mL
MIC (K. pneumoniae B 77; B77, agent alone, enzymes SHV, TEM, NDM-1, read-out: MIC): > 32 µg/mL
MIC (K. pneumoniae B 77; B77, with compound of Formula (I) at 8 mcg/ml, read-out: MIC (mcg/ml) of cefepime in presence of a compound of Formula (I) (8 mcg/ml)): ≤ 0.25 µg/mL
MIC (E. coli M 44; M44, agent alone, enzymes TEM, NDM-1, read-out: MIC): > 32 µg/mL
MIC (E. coli M 44; M44, with compound of Formula (I) at 8 mcg/ml, read-out: MIC (mcg/ml) of cefepime in presence of a compound of Formula (I) (8 mcg/ml)): ≤ 0.015 µg/mL
MIC (P. aeruginosa Q-111; Q111, agent alone, enzymes OXA-4, OXA-11, read-out: MIC): > 32 µg/mL
MIC (P. aeruginosa Q-111; Q111, with compound of Formula (I) at 8 mcg/ml, read-out: MIC (mcg/ml) of cefepime in presence of a compound of Formula (I) (8 mcg/ml)): ≤ 0.06 µg/mL
Bacterial count ([3]; 2 hours): 6.9 Log CFU/ml
Bacterial count ([3]; 4 hours): 8.23 Log CFU/ml
Bacterial count ([3]; 6 hours): 8.23 Log CFU/ml
Change in bacterial count (in words) [3, 5]: no decrease in bacterial count was observed
Bacterial count ([4]; 2 hours): 6.17 Log CFU/ml
Bacterial count ([4]; 4 hours): 7.11 Log CFU/ml
Bacterial count ([4]; 6 hours): 8.69 Log CFU/ml
Change in bacterial count (in words) [4, 5]: no decrease in bacterial count was observed
